Reference: publication PMC6264499, “In silico identification and experimental validation of hits active against KPC-2 β-lactamase” (PLoS ONE, 2018)

Legend:
recombinant KPC-2 [1] = biological target: T1, recombinant KPC-2 (Klebsiella pneumoniae, UniProt Q9F663); assay: KPC-2 inhibition assay, nitrocefin as reporter substrate; assay type: biochemical; conditions: for IC50: nitrocefin 114.28 μM (Km 36 μM), 25°, 485 nm
T1 construct: made in house; host or cells: E. coli BL21 (DE3)
Protocol: (§1) The blaKPC-2 gene was kindly provided by Prof. Sergei Vakulenko (University of Notre Dame du Lac, Indiana, USA) and cloned as already reported and transformed into competent E.coli BL21 (DE3) cells for protein expression. 50 mL of Tryptic Soy Broth (TSB) (50 mg/L kanamycin) were inoculated with fresh colonies and grown at 37°C. 4 mL of the overnight culture was used to inoculate 1.3 L of TSB (50 mg/L kanamycin) grown at 37°C with shaking to an optical density of 0.5 measured at 600 nm. Then expression of recombinant bla gene was induced by adding 1.0 mM IPTG (isopropyl-D-thiogalactopyranoside) and the cells were again allowed to grow at 20°C overnight. Bacteria were harvested by centrifugation at 4000 rpm for 20 minutes. The pelleted cells were resuspended in Tris-HCl 50 mM pH 7.4–7.5. Periplasmatic proteins were extracted as reported in the pET System Manual (TB055 10th Edition Rev. B 0403) and subsequently dialyzed in sodium acetate buffer (50 mM, pH 5.0). The protein was conveniently purified in a single step using a Macro-Prep High S resin and eluted using sodium acetate 50 mM pH 5.0 and a sodium chloride (NaCl) linear gradient from 100 to 500 mM. The purified protein was dialyzed overnight in sodium phosphate buffer 50 mM, pH 7.0 [31, 32].
(§2) The hydrolytic activity of KPC-2 was measured using the β-lactam substrates CENTA (100 uM, KM 70 uM) or nitrocefin (114 uM, KM 36 μM) in reaction buffer consisting of 50 mM of PB at pH 7.0 at 25°C with 0.01% v/v Triton X-100 to avoid compound aggregation and promiscuous inhibition.[33] Reactions were monitored using a Beckmann DU640 spectrophotometer at […] for CENTA and 480 nm wavelength for nitrocefin [34]. The test compounds were synthesized as described below or purchased from Enamine, TimTec, Vitas-M, ChemBridge, Otava, Life Chemicals or Apollo Scientific and assayed without further purification. Compounds were dissolved in dimethyl sulfoxide (DMSO) to a concentration of 25 mM and stored at -20°C. The highest concentration at which the compounds were tested was up to 1 mM (depending on their solubility). All experiments were performed in duplicate and the error never exceeded 5%. The reaction was typically initiated by adding KPC-2 to the reaction buffer last. To control for incubation effects, protein was added to the reaction buffer first, and the reaction was initiated by the addition of reporter substrate after 10 minutes of enzyme-compound incubation.
Kinetic were monitored at 25° by following the absorbance variation at λ = 485 nm. ^[b] If no IC50 has been measured, percent inhibition at the highest tested concentration is given in parentheses. […] When % Inhibition was below 10% No Inhibition (NI) is reported. TEXT PRINTED IN THE PICTURE: 11a: IC50 mM [a,b]: 0.036 | 1b: IC50 mM [a,b]: > 0.2 (25) | 2b: IC50 mM [a,b]: >0.6 (23) | 3b: IC50 mM [a,b]: Not tested not soluble | 4b: IC50 mM [a,b]: > 0.2 (16) | 5b: IC50 mM [a,b]: > 0.2 (13) | 6b: IC50 mM [a,b]: NI at 0.2 | 7b: IC50 mM [a,b]: >1.0 (30) | 8b: IC50 mM [a,b]: > 1.0 (37) | 9b: IC50 mM [a,b]: NI at 0.5 | 10b: IC50 mM [a,b]: NI at 0.5 | 11b: IC50 mM [a,b]: > 1.0 (37) | 12b: IC50 mM [a,b]: NI at 0.5 | 13b: IC50 mM [a,b]: NI at 0.5 | 14b: IC50 mM [a,b]: >500 (20) DOUBTS OF THE COPYIST ABOUT THIS PICTURE: column head: raised note printed very small, read as [a,b]

recombinant KPC-2 [2] = biological target: T1, recombinant KPC-2; assay: KPC-2 inhibition assay, CENTA as reporter substrate; assay type: biochemical; conditions: for IC50: read-out: IC50
Protocol: as §1, §2
Fig 4 Inhibitory activity of compounds selected from virtual screening. ^[a]Assays were performed in duplicate (errors were less than 5%) with CENTA as reporter substrate (100 μM, km 70 μM). Kinetic were monitored at 25° by following the absorbance variation at λ = 405 nm. ^[b] If no IC50 has been measured, percent inhibition at the highest tested concentration is given in parentheses. For example, > 0.50 (26%) implies that the highest concentration tested was 0.50 mM; at this concentration, the enzyme was inhibited by 26%. Therefore, IC50> 0.50 mM. When % Inhibition was below 10% No Inibition (NI) is reported. ^[c]Assays were run after 10’ incubation of the inhibitor with KPC-2. Reaction was started by the addition of CENTA. […] 0 (11) | 32a: IC50 mM ^[a,b]: 1.24
Competitive inhibition mechanism and the Ki for compound 9a was determined by Lineweaver–Burk (LB) and Dixon plots.

Kpn 53A8 = assay: MIC of meropenem, alone or 1:1 with compounds, KPC-2 clinical strain; assay type: cell-based, K. pneumoniae; conditions: strain Kpn 53A8
Protocol: The antimicrobial activity of the best hits 9a and 11a and their derivatives was studied in bacterial cell cultures to investigate their ability to cross the outer membrane reaching the periplasmic space, where KPC-2 is secreted and confined in Gram negative bacteria. Compounds were tested for synergy with the β-lactam antibiotic meropenem against four K. pneumoniae clinical strains, isolated from different patients at the Hospital Universitario Son Espases, Palma de Mallorca, Spain. […] The three additional strains harbored the blaKPC-2 gene and were resistant to meropenem (Table 2). […] However, against strain Kpn 53A8 the MIC value was lowered by a factor of two when meropenem was combined with compounds 32a, 1b, 2b, 5b and 6b while in combination with compound 11a the MIC value was reduced by 4 fold.

[3] = read-out: percent inhibition at the highest tested concentration
[4] = CENTA 100 μM, after 10' incubation of the inhibitor with KPC-2
[5] = CENTA 100 μM (km 70 μM), 25°, 405 nm, no pre-incubation

T1 sequence (Q9F663 25-293, looked up): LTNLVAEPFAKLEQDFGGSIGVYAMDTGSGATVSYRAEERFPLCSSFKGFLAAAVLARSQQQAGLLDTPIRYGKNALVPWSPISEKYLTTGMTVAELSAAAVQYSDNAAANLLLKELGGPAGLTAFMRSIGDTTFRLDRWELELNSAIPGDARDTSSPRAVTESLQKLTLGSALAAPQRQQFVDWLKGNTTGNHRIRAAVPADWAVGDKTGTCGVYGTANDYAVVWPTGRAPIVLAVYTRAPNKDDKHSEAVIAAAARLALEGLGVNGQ

Question: How did the inhibition at 500 µM (recombinant KPC-2 [1]; [3]) turn out when `O=S(=O)(Nc1cccc(-c2nnn[nH]2)c1)c1ccc(S(=O)(=O)N2CCCC2)cc1` [10b] was run?
Answer: < 10%

Question: Which IC50 (recombinant KPC-2 [2]; [4]) does the source give for `CCOc1cc(C(=O)O)nc2ccc(OC)cc12` [20a] here?
Answer: > 500 µM

Question: And the inhibition at 500 µM (recombinant KPC-2 [2]; [3])?
Answer: 28%

Question: What does the source list for `Cc1cc(C(=O)O)cc(S(=O)(=O)Nc2cccc(-c3nnn[nH]3)c2)c1C` [8b]?
Answer: IC50 (recombinant KPC-2 [1]): > 1000 µM; inhibition at 1000 µM (recombinant KPC-2 [1]; [3]): 37%

Question: `O=C(Nc1cccc(-c2nnn[nH]2)c1)c1cccc(F)c1` [11a, N-(3-(1H-tetrazol-5-yl)phenyl)-3-fluorobenzamide] was tested. Which IC50 (recombinant KPC-2 [2]; [4]) did it give?
Answer: 36 µM

Question: What about the Ki (recombinant KPC-2 [2]; Cheng-Prusoff equation from IC50, assuming competitive inhibition, read-out: Ki (calculated)) of the same compound?
Answer: 14.8 µM

Question: What about the “ligand efficiency (LE)” value (recombinant KPC-2 [2]; vs KPC-2) of the same compound?
Answer: 0.28 kcal/mol/non-hydrogen atom

Question: And the mode of inhibition (recombinant KPC-2 [2]; vs KPC-2)?
Answer: competitive inhibitors

Question: And the “fold reduction of meropenem MIC in combination with compound” value (Kpn 53A8)?
Answer: 4 fold

Question: Which results are given for `CC(=O)Nc1cccc(-c2nnn[nH]2)c1` [8a]?
Answer: IC50 (recombinant KPC-2 [2]; [5]): > 500 µM; inhibition at 500 µM (recombinant KPC-2 [2]; [3]): 37%

Question: Which results are given for `O=C(NCc1nnnn1-c1ccccc1)c1cccnc1O` [25a]?
Answer: IC50 (recombinant KPC-2 [2]; [5]): > 400 µM; inhibition at 400 µM (recombinant KPC-2 [2]; [3]): 26%

Question: `CN(Cc1cnccn1)Cc1cccc(C(=O)O)n1` [23a] was tested. Which IC50 (recombinant KPC-2 [2]; [4]) did it give?
Answer: > 1000 µM

Question: What about the inhibition at 1000 µM (recombinant KPC-2 [2]; [3]) of the same compound?
Answer: 26%

Question: Which IC50 (recombinant KPC-2 [2]; [5]) does the source give for `COCc1nc2cc(NS(C)(=O)=O)ccc2o1` [21a] here?
Answer: > 1000 µM

Question: And the inhibition at 1000 µM (recombinant KPC-2 [2]; [3])?
Answer: 12%

Question: For `Cn1nccc1-c1cc(C(=O)O)n[nH]1` [27a], which inhibition at 500 µM (recombinant KPC-2 [2]; [3]) is on record?
Answer: < 10%

Question: What does the source list for `O=[N+]([O-])c1cccc(S(=O)(=O)Nc2cccc(-c3nnn[nH]3)c2)c1` [2b, N-(3-(1H-tetrazol-5-yl)phenyl)-3-nitrobenzenesulfonamide]?
Answer: IC50 (recombinant KPC-2 [1]): > 600 µM; inhibition at 600 µM (recombinant KPC-2 [1]; [3]): 23%; fold reduction of meropenem MIC in combination with compound (Kpn 53A8): two

Question: Which IC50 (recombinant KPC-2 [2]; [5]) does the source give for `O=C(NC1CC1)c1ccc(-c2nnn[nH]2)cc1` [18a] here?
Answer: > 1000 µM

Question: And the inhibition at 1000 µM (recombinant KPC-2 [2]; [3])?
Answer: 18%

Question: Which IC50 (recombinant KPC-2 [2]; [5]) does the source give for `COc1ccc2nc(C(=O)O)[nH]c2c1` [19a] here?
Answer: 880 µM

Question: And the “fold less active than 9a” value (recombinant KPC-2 [2]; IC50 vs KPC-2 relative to compound 9a)?
Answer: 6 fold

Question: What does the source list for `Cc1n[nH]c(C)c1/C=C/c1cc(C(=O)O)ncn1` [24a]?
Answer: IC50 (recombinant KPC-2 [2]; [5]): > 100 µM; inhibition at 100 µM (recombinant KPC-2 [2]; [3]): 41%

Question: Which results are given for `Cn1cc(-c2cc(C(=O)O)no2)cn1` [4a]?
Answer: IC50 (recombinant KPC-2 [2]; [5]): > 250 µM; inhibition at 250 µM (recombinant KPC-2 [2]; [3]): 12%

Question: Which results are given for `O=S(=O)(/C=C/c1cccc(Br)c1)Nc1cccc(-c2nnn[nH]2)c1` [7b]?
Answer: IC50 (recombinant KPC-2 [1]): > 1000 µM; inhibition at 1000 µM (recombinant KPC-2 [1]; [3]): 30%

Question: What does the source list for `CCOc1ccc(NS(C)(=O)=O)cc1` [7a]?
Answer: IC50 (recombinant KPC-2 [2]; [5]): > 1000 µM; inhibition at 1000 µM (recombinant KPC-2 [2]; [3]): 12%

Question: How did the inhibition at 1000 µM (recombinant KPC-2 [2]; [3]) turn out when `CCS(=O)(=O)Nc1cc(-c2ccncc2)n[nH]1` [22a] was run?
Answer: < 10%

Question: `O=C(Nc1cccc(-c2nn[nH]n2)c1)c1cccs1` [10a] was tested. Which IC50 (recombinant KPC-2 [2]; [4]) did it give?
Answer: 70 µM

Question: For `O=C(O)Cc1c[nH]c2ncnn2c1=O` [30a], which inhibition at 1000 µM (recombinant KPC-2 [2]; [3]) is on record?
Answer: < 10%

Question: How did the IC50 (recombinant KPC-2 [2]; [5]) turn out when `COc1cc(OC)c2cc(C(=O)O)nnc2c1` [28a] was run?
Answer: > 500 µM

Question: What about the inhibition at 500 µM (recombinant KPC-2 [2]; [3]) of the same compound?
Answer: 14%

Question: Which IC50 (recombinant KPC-2 [1]) does the source give for `O=S(=O)(Nc1cccc(-c2nnn[nH]2)c1)c1cccc2cccnc12` [5b, N-(3-(1H-tetrazol-5-yl)phenyl)quinoline-8-sulfonamide] here?
Answer: > 200 µM

Question: What about the inhibition at 200 µM (recombinant KPC-2 [1]; [3]) of the same compound?
Answer: 13%

Question: What about the “fold reduction of meropenem MIC in combination with compound” value (Kpn 53A8) of the same compound?
Answer: two

Question: Which results are given for `COc1ccc2[nH]nc(C(=O)O)c2c1` [1a]?
Answer: IC50 (recombinant KPC-2 [2]; [5]): > 330 µM; inhibition at 330 µM (recombinant KPC-2 [2]; [3]): 30%
